These results are taken from patent US6770649B2, “1-[1-(hetero)aryl-1-perhydroxyalkylmethyl]-piperazine compounds, process for their preparation and pharmaceutical compositions containing them” (Solvay Pharmaceuticals GmbH, priority 2001, dated 2004).

Read-outs that look alike come from different tables or passages of the source.

The test has as its target T1, NK-2 receptors (Cavia porcellus, UniProt Q64077).
T1 construct: the NK-2 receptors present in the gall-bladder preparations; from tissue; host or cells: Pirbright-White guinea pig: isolated gall-bladder (A2); anaesthetised whole animal (A3)
T1 sequence (Q64077 1-402): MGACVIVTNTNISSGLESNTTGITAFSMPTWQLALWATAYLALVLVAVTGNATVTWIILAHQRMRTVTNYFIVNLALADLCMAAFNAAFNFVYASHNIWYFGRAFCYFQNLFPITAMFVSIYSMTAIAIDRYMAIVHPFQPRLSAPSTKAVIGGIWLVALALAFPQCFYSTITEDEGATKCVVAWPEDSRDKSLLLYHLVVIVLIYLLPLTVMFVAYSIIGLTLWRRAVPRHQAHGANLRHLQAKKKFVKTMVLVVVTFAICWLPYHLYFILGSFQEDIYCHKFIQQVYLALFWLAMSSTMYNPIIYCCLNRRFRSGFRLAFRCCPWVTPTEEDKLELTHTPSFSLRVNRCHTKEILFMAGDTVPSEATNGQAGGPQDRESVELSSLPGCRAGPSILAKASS
Nature of the test: NK-2-receptor-antagonistic effectiveness in vivo in anaesthetised guinea pigs (NKA test stimulus). Set-up: species or system guinea pig. As to conditions: for NK-2-receptor-antagonistic activity of colon motility, late drop in blood pressure and respiratory resistance (in words): cumulative administration i.v., antagonism detected 1 min. after administration had ended. The text has this: 3. Determination of the NK-2-receptor-antagonistic Effectiveness of the Test Substances in vivo
The NK-2- and NK-1-antagonistic activities of the test substances were investigated in anaesthetised guinea pigs in each case after intravenous (=i.v.) and oral (=p.o.) administration in vivio. With the present test model it is possible to detect both NK-2-antagonistic effects in three different organ systems (respiratory tracts, colon and circulation) and NK-1-antagonistic effects (rapid drop in blood pressure) in an animal simultaneously.
Pirbright-White guinea pigs of a body weight of 500-700 g were anaesthetised with ketamine/xylazine (67/13 mg/kg subcutaneously, initial dose, further doses administered as required). The animals were provided with an intravenous catheter in order to administer the substance and an intra-arterial catheter to measure the blood pressure. The animals were artificially ventilated via a tracheal cannula and the respiratory pressure was recorded by means of a pressure transducer. A balloon was introduced into the distal colon of the animals for manometric recording of colon motility by means of a pressure transducer. Blood pressure, heart rate, respiratory pressure and colonic pressure were measured continuously for each animal and plotted on a recorder and by means of a digital data-processing system. Neurokinin A (=NKA; 200 pmol/animal) was administered i.v. as a bolus as a test stimulus to stimulate the NK-1- and the NK-2 receptors. An addition of NKA of this type results in a great increase in respiratory pressure (bronchoconstriction) and colonic pressure, and in a biphasic drop in blood pressure. The first phase of hypotension (=phase of maximum hypotension within the first minute after administration of NKA) is mediated via NK-1 receptors, since they can be blocked completely by specific NK-1 receptor antagonists. The second phase of delayed hypotension (=phase of maximum hypotension after 2-5 min.) on the other hand is mediated via NK-2 receptors, since they can be blocked by specific NK-2 receptor antagonists. The doses of the test substances are given as ED50 values which each result in a response to the NKA test stimulus which is reduced to 50% of the initial value, as characteristic variables for the individual measurement parameters bronchoconstriction, colonic pressure and change in blood pressure mediated by NK-1 or NK-2.
The antagonistic effects of the test substances were first investigated in cumulative form, the time of the NKA test stimulus being 1 min. after the administration of the respective doses of the test substances had ended. These ED50 values obtained from cumulative dose effect curves are plotted in Table 2 below. In order additionally to detect the variation over time of the antagonistic effects of the test substances, the action of the NKA test stimulus was determined at different times (1, 30, 60, 90, 120, 150 and 180 min.) after administration of the test substances.

The mark [1] stands for this setting: guinea pig, iv, cumulative dosing, NKA stimulus 1 min. after administration, NK-2-mediated late drop in blood pressure, read-out: ED50 Blood pressure, i.v. after 1 min. (cumulative).
Setting [2] is: guinea pig, iv, cumulative dosing, NKA stimulus 1 min. after administration, respiratory resistance (bronchoconstriction), read-out: ED50 Respiratory resistance, i.v. after 1 min. (cumulative).
The mark [3] stands for this setting: guinea pig, iv, cumulative dosing, NKA stimulus (200 pmol/animal i.v.) 1 min. after administration, colonic pressure, read-out: ED50 Colonic pressure, i.v. after 1 min. (cumulative).
The mark [4] stands for this setting: guinea pig, iv, from AUC of antagonistic effect over 120 min after administration, colonic pressure, read-out: ED50 Colonic pressure, i.v. AUC over 120 min.
Setting [5] is: guinea pig, iv, from AUC over 120 min after administration, NK-2-mediated drop in blood pressure, read-out: ED50 Blood pressure, i.v. AUC over 120 min.
[6] abbreviates: guinea pig, iv, from AUC over 120 min after administration, respiratory resistance, read-out: ED50 Respiratory resistance, i.v. AUC over 120 min.
Where [7] appears, read: guinea pig, po, from AUC over 180 min after administration, NK-2-mediated drop in blood pressure, read-out: ED50 Blood pressure, p.o. AUC over 180 min.
Where [8] appears, read: guinea pig, po, from AUC over 180 min after administration, colonic pressure, read-out: ED50 Colonic pressure, p.o. AUC over 180 min.
Setting [9] is: guinea pig, po, from AUC over 180 min after administration, respiratory resistance, read-out: ED50 Respiratory resistance, p.o. AUC over 180 min.

Usually ED50 stands for the dose that gives a 50% effect, or the effect in half of the subjects. For the compound `CN(CC(CCN1CCN(C(c2ccco2)[C@H](O)[C@@H](O)[C@H](O)CO)CC1)c1ccc(Cl)c(Cl)c1)C(=O)c1ccccc1` (mixture of isomers) [Example 13], the “NK-2-receptor-antagonistic activity of colon motility, late drop in blood pressure and respiratory resistance (in words)” value (“NK-2-receptor-antagonistic activity” below) is recorded as “marked NK-2-receptor-antagonistic activity”. For the same compound, under setting [1], the ED50 came to 0.08 µmol/kg. The ED50 under setting [2] was 0.048 µmol/kg. Also, the ED50 under setting [3] is 0.019 µmol/kg. Moreover, under setting [4], the ED50 was found to be 0.018 µmol/kg. The ED50 under setting [5] came out at 0.025 µmol/kg. For the same compound, the ED50 under setting [6] was 0.023 µmol/kg. In addition, under setting [7], the median effective dose (ED50) was 24 µmol/kg. Further, under setting [8], the ED50 was found to be 1.9 µmol/kg. Further, the ED50 under setting [9] is 2 µmol/kg.
On to `CN(C[C@@H](CCN1CCN(C(c2ccsc2)[C@H](O)[C@@H](O)[C@H](O)CO)CC1)c1ccc(Cl)c(Cl)c1)C(=O)c1ccccc1` (stereo partly drawn) [Example 1, N-((2S)-2-(3,4-dichlorophenyl)-4-{4-[(2S,3R,4R)-2,3,4,5-tetrahydroxy-1-(3-thienyl)pentyl]-1-piperazinyl}butyl)-N-methylbenzamide], for which the “NK-2-receptor-antagonistic activity” value was “marked NK-2-receptor-antagonistic activity”. Further, the “inhibition of the NK-2 mechanisms at the colon compared with bronchoconstrictive or hypotensive NK-2 effects (in words)” value (comparison of the Table 2 values) is recorded as “more effective inhibition of the NK-2 mechanisms at the colon (colon preference)”. Moreover, the ED50 under setting [1] was found to be 0.025 µmol/kg. In addition, the ED50 under setting [2] came to 0.033 µmol/kg. For the same compound, the ED50 under setting [3] was 0.017 µmol/kg. The ED50 under setting [4] turned out to be 0.0009 µmol/kg. The ED50 under setting [5] was determined as 0.006 µmol/kg. In addition, under setting [6], the ED50 is 0.008 µmol/kg. Further, under setting [7], the ED50 came to 2.7 µmol/kg. Under setting [8], the ED50 worked out at 0.5 µmol/kg. Also, the ED50 under setting [9] was found to be 1.8 µmol/kg. Moreover, the “onset and duration of action (in words)” value (variation over time of the antagonistic effect, guinea pig) is recorded as “slow-onset action of long duration”.
Consider `CC(=O)OC[C@@H](OC(C)=O)[C@H](OC(C)=O)[C@@H](OC(C)=O)C(c1ccsc1)N1CCN(CC[C@H](CN(C)C(=O)c2ccccc2)c2ccc(Cl)c(Cl)c2)CC1` (some centres unmarked) [Example 14], for which the “NK-2-receptor-antagonistic activity” value is “marked NK-2-receptor-antagonistic activity”. The ED50 under setting [1] came out at 0.063 µmol/kg. The ED50 under setting [2] is 0.078 µmol/kg. Moreover, the ED50 under setting [3] was 0.042 µmol/kg. Also, the ED50 under setting [7] came out at 9.4 µmol/kg. Also, the ED50 under setting [8] stood at 3.2 µmol/kg. Besides, the ED50 under setting [9] was determined as 6.7 µmol/kg.
